In patent EP0958819A1, “REMEDIES/PREVENTIVES FOR ABNORMAL MOTIONS ACCOMPANYING DISORDERS IN EXTRAPYRAMIDAL SYSTEM” (Asahi Kasei Kogyo Kabushiki Kaisha, priority 1996, dated 1998):
Where a name gives a salt, the structure may show the parent alone. Marks after values point to notes of the source that are not given here.

Key:
[1] = tested on: involuntary head-movements induced by IPDN; test: Antagonistic action against IDPN model (head movements); type: in vivo, Sprague-Dawley rats; details: 1 mg/kg p.o.; IDPN 150 mg/kg i.p. for 6 days; counted during 30 minutes starting 30 minutes after dosing; mean ± standard error, 6 rats; control group 347 ± 14.4; p < 0.01
Experimental: When […] (IDPN, Tokyo Kasei Kogyo K.K., Japan) is administered in rats, rapid reciprocation of horizontal and vertical head movements is induced. […] This is very similar to the abnormal movements accompanying disorders of extrapyramidal system of human, which is classified into the group with major symptom of rapid involuntary movement and muscle hypotonia. (Schneider, J. S., Exp. Neurol., 84, 524 - 532, 1984).
IDPN (Tokyo Kasei Kogyo K.K., Japan) 150 mg/kg was administered to Sprague-Dawley rats (Charles River Inc., 7 weeks old) for 6 days intraperitoneally. Animals expressing horizontal and vertical head movements (at initiation of the experiment: 12 - 14 weeks old) within after 2 weeks of administration were used for dyskinesia model animals. The compound of the present invention (1 mg/kg) or distilled water (as a control group) was administered orally in rats. After 30 minutes, numbers of horizontal and vertical head movements neck during 30 minutes thereafter were counted. One reciprocation is counted as one motion.

dystonia model = test: Inhibitory effect against dystonia model (haloperidol infused into red nucleus); type: in vivo, Wistar rats; details: combined infusion of haloperidol 3 nmol and compound 0.03 nmol into red nucleus; maximum torsional angle, mean ± S.D., 12 rats; control (haloperidol 3 nmol) 24.1 ± 1.7; p<0.01
Excerpt: Unilateral infusion of haloperidol into red nucleus of rats results to appear continuous torsional movements of the head when the infusion side was laid down under side. This model reflects dystonia characterized by slow involuntary movement and hypermyotonia, which is one of abnormal movements accompanying disorders of extrapyramidal system. (Matsumoto, R.R. et al. Pharmacol. Biochem. Behavior.,36, 151 - 155, 1989). Evaluation of the compound of the present invention on dystonia model was performed by the following method.
Wistar rats (Japan Charles River Inc., 9 weeks old) were anesthetized by administration of pentobarbital (Somnopentil injection) 50 mg/kg intraperitoneally, and fixed the head by stereotaxic apparatus (David Coop Inc. U.S.A., David kopf). Scalp was incised and the bone of skull was exposed. Guide cannula 25G (Eicom Inc., Japan) was implanted 4.5 mm the above the left red nucleus and fixed with dental cement. After 2 - 3 days, injection cannula 27G (Eicom Inc., Japan) was inserted into the guide cannula without anesthetization. The tip of the cannula was introduced into the red nucleus below 4.5 mm of the guided cannula. […]
Rats were set into the observation cage made with transparent acrylic resin and recorded the front view image by video camera. […]

[2] = tested on: haloperidol-induced catalepsy; test: Preventive effect for catalepsy model, haloperidol-induced; type: in vivo, Wistar rats; details: 1 mg/kg p.o. 30 minutes before haloperidol 2 mg/kg i.p.; catalepsy observed 1 hour after haloperidol; shortening of catalepsy duration vs distilled water group; 10 rats
Experimental: (§1) When a drug having dopamine receptor blocking activity is administered in rats, catalepsy induced. Catalepsy means a symptom of rats, which can not recovered by own intention, when rats are enforced unnatural posture, and it reflects abnormal movements consisting of mainly tremor, muscle rigidity and hypokinesia. (Hornykiewicz, O. Br. Med. Bull., 29, 172 - 178, 1973). […] (Schmidt, W.J. and Bubser, M., Pharmacol. Biochem. Behavior., 32, 621 - 623, 1988).
(§2) The compound A hydrochloride, 1mg/kg, was administered orally into Wistar rats, male (Japan Charles River Inc.). After 30 minutes, haloperidol (Sigma Corp., U.S.A.), 2mg/kg, or risperidone, which was extracted from Risperdal (trade name, Janssen Corp.,UK) according to the method hereinbelow explained, 20 mg/kg were administered intraperitoneally. Catalepsy after 1 hour of administration of haloperidol or risperidone was observed. Catalepsy was observed by hanging rats in their forepaws on the iron bar, diameter 2 mm, set on the position of 12 cm high, and we measured the time maintaining this posture. Measurements were conducted maximum for 180 seconds. Experiments were conducted in a group of 10 rats for haloperidol induced catalepsy test and a group of 5 rats for risperidone induced catalepsy test. The mean duration of catalepsy in distilled water (vehicle of the compound in present invention)-administered group was defined as 100 %. […]

[3] = tested on: risperidone-induced catalepsy; test: Preventive effect for catalepsy model, risperidone-induced; type: in vivo, Wistar rats; details: 1 mg/kg p.o. 30 minutes before risperidone 20 mg/kg i.p.; catalepsy observed 1 hour after risperidone; shortening of catalepsy duration vs distilled water group; 5 rats
Experimental: as §1, §2

red nucleus = test: Effect on the firing rate in the red nucleus (electrophysiology, anesthetized rats); type: in vivo, Wistar rats; details: firing rate before administration = 100 %
Excerpt: The red nucleus belongs extrapyramidal system and have an important role for regulating motor function. Destruction of the red nucleus in rats was reported to enhance the catalepsy. (Kolasa. K. et al., Pharmacol. Biochem. Behav.,51, 29 - 35, 1995). As shown in Example 4 dystonia model, unilateral infusion of haloperidol into red nucleus of rats results to appear dystonia. As shown like this, the hypofunction of red nucleus have a close relation with the expression of abnormal movements accompanying disorders of extrapyramidal system. Namely, hypofunction of red nucleus is considered to lead to the abnormal movements accompanying disorder of extrapyramidal system. In this experiment, effect of the compound of the present invention on the haloperidol-induced decrease of firing rate in red nucleus was examined. […]
Electric signals from the glass electrode were amplified with a micro electrode amplifier (MEZ-8301, Nihon Koden Co., Japan), filtered band path of 3 kHz - 50 Hz and humfilter and monitored on a oscilloscope (VC-11, Nihon Koden Co., Japan). […] Number of firing/10 seconds (firing rate) was calculated using pulse counter (MET-1100, Nihon Koden Co., Japan) and recorded by computer (Maclab ver. 3.5. Macintosh) with time dependent manner. […]

[4] = tested on: risperidone-induced catalepsy; test: Therapeutic effect against catalepsy model, risperidone-induced; type: in vivo, Wistar rats; details: 1 mg/kg p.o. given 75 minutes after risperidone 20 mg/kg i.p. to rats showing catalepsy; measured 105 minutes after compound; 5 to 6 rats
Experimental: (§3) Therapeutic effects of the compound of the present invention on haloperidol or risperidone induced catalepsy were examined using Wistar rats, male (Charles River Inc., Canada).
After further 15 minutes, the compound of the present invention or distilled water was administered orally. Therapeutic effect of the present compound against risperidone induced catalepsy was measured after 105 minutes of administration of the compound of the present invention.
(§4) Catalepsy was observed by hanging rats in their forepaws on the iron bar, diameter 2 mm, set on the position of 12 cm high, and we measured the duration of catalepsy. Measurements were conducted maximum for 180 seconds. Experiments were conducted in a group of 10 rats for haloperidol-induced catalepsy test and a group of 5 to 6 rats for risperidone induced catalepsy test. The mean duration of catalepsy in distilled water (vehicle of the compound in present invention)-administered group was defined as 100 %. Suppressive rate was indicated as percent of the shortening on the duration of catalepsy in the compound-administered group comparing with the mean of that in distilled water administered group.

[5] = tested on: haloperidol-induced catalepsy; test: Therapeutic effect against catalepsy model, haloperidol-induced; type: in vivo, Wistar rats; details: 1 mg/kg p.o. given 45 minutes after haloperidol 2 mg/kg i.p. to rats showing catalepsy; measured 75 minutes after compound; 10 rats
Experimental: as §3
After further 15 minutes, the compound of the present invention or distilled water was administered orally. Therapeutic effect of the present compound against haloperidol induced catalepsy was measured after 75 minutes of administration of the compound of the present invention.
as §4

`CC1(C)C2CC[C@]1(C)CN(CCC1C3CC4CC(C3)CC1C4)C2` (stereo partly drawn) [Compound A, (1S)-3-[2-(2-adamantyl)ethyl]-1,8,8-trimethyl-3-azabicyclo [3.2.1]-octane] was tested, and the “Numbers of oscillation of neck” value [1] was 224.5 ± 24.4 and the “torsional angle of head” value (dystonia model) was 15.5 ± 1.3.

With `CC1(C)C2CC[C@]1(C)CN(CCC1C3CC4CC(C3)CC1C4)C2` (stereo partly drawn) [Compound A hydrochloride, (1S)-3-[2-(2-adamantyl)ethyl]-1,8,8-trimethyl-3-azabicyclo [3.2.1]-octane] the “Suppressive rate (mg/kg, p.o.)” value [2] was 77% (1), the “Suppressive rate (mg/kg, p.o.)” value [3] was 53% (1) and the “% Inhibitor of firing rate” value (red nucleus; compound 0.1 µg/kg i.v. 1 - 3 minutes before haloperidol 0.2 mg/kg i.v., P<0.05) was 24.7 %*. The “Suppressive rate (mg/kg, p.o.)” value [4] was 48% (1) and the “Suppressive rate (mg/kg, p.o.)” value [5] was 50% (1).

In the case of `O=C(CCCN1CCC(O)(c2ccc(Cl)cc2)CC1)c1ccc(F)cc1` [haloperidol, reference compound], the “% Inhibitor of firing rate” value (red nucleus; saline i.v. 1 - 3 minutes before haloperidol 0.2 mg/kg i.v.) is reported as 60.1%.
